Reference: ChEMBL document CHEMBL5465560, “Selectivity Literature for EUbOPEN Chemogenomic Library” (2024)
One block for each molecule: values may come before it.

Tests used:
[1] = biological target: DNA (cytosine-5)-methyltransferase 3A (Homo sapiens) (UniProt Q9Y6K1); assay: Selectivity interaction (Methyltransferase screen (radiometric assays, panel of 8 PRMTs, 21 protein lysine methyltransferases, 3 DNA methyltransferases, and one RNA methyltransferase)) EUB0000271b DNMT3A
[2] = biological target: Serine/threonine-protein kinase Nek6 (Homo sapiens) (UniProt Q9HC98); conditions: at 10 µM
[3] = biological target: Histone-lysine N-methyltransferase SUV39H2 (Homo sapiens) (UniProt Q9H5I1); assay: Selectivity interaction (Methyltransferase screen (radiometric assays, panel of 8 PRMTs, 21 protein lysine methyltransferases, 3 DNA methyltransferases, and one RNA methyltransferase)) EUB0000272b SUV39H2
[4] = biological target: RAC-alpha serine/threonine-protein kinase (Homo sapiens, UniProt P31749); assay: Selectivity interaction (Kinase panel (literature)) EUB0001199aCl AKT1; conditions: at 1 µM
[5] = biological target: Proto-oncogene tyrosine-protein kinase ROS (Homo sapiens) (UniProt P08922); assay: Selectivity interaction (KinomeScan (DiscoverX)) EUB0000607a ROS1; conditions: at 10 µM
[6] = biological target: Homeodomain-interacting protein kinase 1 (Homo sapiens, UniProt Q86Z02); assay: Selectivity interaction (KinomeScan (DiscoverX)) EUB0000607a HIPK1; conditions: at 10 µM
[7] = biological target: T1, Myosin light chain kinase, smooth muscle (Homo sapiens, UniProt Q15746); assay: Selectivity interaction (ActivX KiNativ screen (ex vivo kinase selectivity in human PBMCs)) EUB0001619a MYLK; format: cell-based; conditions: PBMC, at 1 µM
[8] = biological target: Ribosomal protein S6 kinase alpha-1 (Homo sapiens, UniProt Q15418); assay: Selectivity interaction (KinomeScan (DiscoverX)) EUB0000595a RPS6KA1; conditions: at 10 µM
[9] = biological target: T2, Dual specificity mitogen-activated protein kinase kinase 7 (Homo sapiens) (UniProt O14733); assay: Selectivity interaction (Upstate Kinase Profiler service (Millipore)) EUB0000056c MAP2K7; conditions: at 1 µM
T2 sequence (whole entry): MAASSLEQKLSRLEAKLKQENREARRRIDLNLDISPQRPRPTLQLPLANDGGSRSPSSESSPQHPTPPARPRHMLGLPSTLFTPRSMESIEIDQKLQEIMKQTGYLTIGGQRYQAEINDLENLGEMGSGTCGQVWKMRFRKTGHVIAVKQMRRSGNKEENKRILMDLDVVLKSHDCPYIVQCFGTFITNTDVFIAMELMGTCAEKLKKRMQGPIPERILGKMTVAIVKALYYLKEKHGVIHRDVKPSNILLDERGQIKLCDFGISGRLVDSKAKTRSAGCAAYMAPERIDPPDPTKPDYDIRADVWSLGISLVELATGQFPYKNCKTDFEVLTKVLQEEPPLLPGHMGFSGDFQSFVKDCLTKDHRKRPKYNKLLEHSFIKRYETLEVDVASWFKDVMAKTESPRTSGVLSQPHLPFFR

[10] = biological target: DNA (cytosine-5)-methyltransferase 3A (Homo sapiens) (UniProt Q9Y6K1); conditions: at 1 µM
[11] = biological target: Mitogen-activated protein kinase kinase kinase kinase 5 (Homo sapiens) (UniProt Q9Y4K4); assay: Selectivity interaction (Kinase panel (KiNativ target engagement assay in Jurkat cells)) EUB0001635a MAP4K5; format: cell-based; conditions: Selectivity number of off-targets 0.0, Selectivity number of targets 233.0, Source Knowledge https://www.sciencedirect.com/science/article/pii/S2451945619300674?via%3Dihub, at 1 µM
[12] = biological target: Histone-lysine N-methyltransferase KMT5C (Homo sapiens) (UniProt Q86Y97); assay: Selectivity interaction (Transferase panel (protein, RNA, and DNA methyltransferases. and EP300 (acetyltransferase))) EUB0000270b SUV420H2
[13] = biological target: LIM domain kinase 1 (Homo sapiens) (UniProt P53667); assay: Selectivity interaction (KinomeScan (DiscoverX)) EUB0000229b LIMK1; conditions: at 10 µM
[14] = biological target: Casein kinase I isoform gamma-3 (Homo sapiens) (UniProt Q9Y6M4); assay: Selectivity interaction (ProQinase) EUB0000171b CSNK1G3
[15] = biological target: Rho-associated protein kinase 2 (Homo sapiens, UniProt O75116); assay: Selectivity interaction (KinomeScan (DiscoverX)) EUB0001049a ROCK2; conditions: at 1 µM
[16] = biological target: T1, Myosin light chain kinase, smooth muscle; assay: Selectivity interaction (KinomeScan (DiscoverX)) EUB0000666a MYLK; conditions: at 10 µM
[17] = biological target: T3, Rhodopsin kinase GRK1 (Homo sapiens) (UniProt Q15835); assay: Selectivity interaction (KinomeScan (DiscoverX)) EUB0000092b GRK1; conditions: at 10 µM
T3 sequence (whole entry): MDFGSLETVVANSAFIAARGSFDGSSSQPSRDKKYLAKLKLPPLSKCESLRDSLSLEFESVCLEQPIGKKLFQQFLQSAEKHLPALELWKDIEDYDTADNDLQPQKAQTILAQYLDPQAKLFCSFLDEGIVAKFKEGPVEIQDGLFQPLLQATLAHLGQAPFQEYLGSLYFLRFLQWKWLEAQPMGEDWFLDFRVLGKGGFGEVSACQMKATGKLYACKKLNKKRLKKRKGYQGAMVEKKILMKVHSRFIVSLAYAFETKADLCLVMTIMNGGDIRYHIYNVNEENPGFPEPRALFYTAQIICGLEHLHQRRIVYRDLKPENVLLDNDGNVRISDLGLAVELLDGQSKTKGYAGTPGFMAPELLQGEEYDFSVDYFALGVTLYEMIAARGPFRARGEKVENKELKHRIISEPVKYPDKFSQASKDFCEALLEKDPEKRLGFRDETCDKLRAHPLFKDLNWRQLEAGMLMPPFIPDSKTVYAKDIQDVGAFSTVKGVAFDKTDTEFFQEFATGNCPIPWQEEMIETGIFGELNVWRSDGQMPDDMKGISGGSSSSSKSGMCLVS

[18] = biological target: Cyclin-Y/Cyclin-dependent kinase 16 (Homo sapiens) (UniProt Q00536+Q8ND76); assay: Selectivity interaction (LanthaScreen Eu Kinase Binding Assay) EUB0001632a CDK16; format: protein-complex assay; conditions: at 10 µM
[19] = biological target: Mitogen-activated protein kinase kinase kinase 4 (Homo sapiens) (UniProt Q9Y6R4); assay: Selectivity interaction (KinomeScan (DiscoverX)) EUB0000695a MAP3K4; conditions: at 100 nM

Sequence of DNA (cytosine-5)-methyltransferase 3A (Homo sapiens) (Q9Y6K1 whole entry, looked up): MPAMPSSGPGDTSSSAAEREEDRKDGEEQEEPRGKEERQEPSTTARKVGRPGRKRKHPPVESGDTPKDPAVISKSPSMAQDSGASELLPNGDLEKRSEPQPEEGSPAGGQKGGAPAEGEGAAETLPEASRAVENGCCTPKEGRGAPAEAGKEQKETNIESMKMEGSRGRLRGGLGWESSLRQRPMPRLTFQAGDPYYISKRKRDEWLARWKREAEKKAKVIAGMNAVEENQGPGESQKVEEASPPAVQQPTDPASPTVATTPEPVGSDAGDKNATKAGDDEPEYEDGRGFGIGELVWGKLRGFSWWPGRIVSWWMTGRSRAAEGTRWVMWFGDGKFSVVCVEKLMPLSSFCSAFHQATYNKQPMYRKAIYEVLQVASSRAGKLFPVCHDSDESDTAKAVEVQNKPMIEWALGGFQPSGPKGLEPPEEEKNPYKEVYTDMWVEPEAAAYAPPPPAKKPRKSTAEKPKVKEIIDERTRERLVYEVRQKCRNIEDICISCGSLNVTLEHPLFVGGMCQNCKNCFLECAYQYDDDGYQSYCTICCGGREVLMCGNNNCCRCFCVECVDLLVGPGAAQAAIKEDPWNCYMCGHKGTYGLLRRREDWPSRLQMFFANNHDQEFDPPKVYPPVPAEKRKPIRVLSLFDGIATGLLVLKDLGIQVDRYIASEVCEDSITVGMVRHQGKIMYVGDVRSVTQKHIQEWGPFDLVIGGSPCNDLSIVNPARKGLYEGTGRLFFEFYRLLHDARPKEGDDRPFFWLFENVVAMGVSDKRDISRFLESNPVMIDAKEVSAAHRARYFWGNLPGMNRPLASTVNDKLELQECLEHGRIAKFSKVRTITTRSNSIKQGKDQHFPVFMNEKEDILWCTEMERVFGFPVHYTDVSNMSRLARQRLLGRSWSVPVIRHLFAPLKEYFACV
Sequence of Histone-lysine N-methyltransferase KMT5C (Homo sapiens) (Q86Y97 whole entry, looked up, the tested form may be a part): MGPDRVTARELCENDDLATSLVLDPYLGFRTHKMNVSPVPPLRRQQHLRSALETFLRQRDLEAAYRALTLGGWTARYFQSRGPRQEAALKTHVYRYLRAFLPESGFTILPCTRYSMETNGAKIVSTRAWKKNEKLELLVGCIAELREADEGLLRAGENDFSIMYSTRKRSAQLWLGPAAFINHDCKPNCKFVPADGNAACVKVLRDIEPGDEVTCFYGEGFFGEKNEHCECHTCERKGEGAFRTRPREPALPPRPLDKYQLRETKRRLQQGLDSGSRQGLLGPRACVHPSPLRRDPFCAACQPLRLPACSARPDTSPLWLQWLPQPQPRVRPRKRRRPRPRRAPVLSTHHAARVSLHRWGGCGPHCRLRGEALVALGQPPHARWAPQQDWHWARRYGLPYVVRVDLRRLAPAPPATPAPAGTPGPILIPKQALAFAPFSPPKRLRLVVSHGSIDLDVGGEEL
Sequence of Histone-lysine N-methyltransferase SUV39H2 (Homo sapiens) (Q9H5I1 whole entry): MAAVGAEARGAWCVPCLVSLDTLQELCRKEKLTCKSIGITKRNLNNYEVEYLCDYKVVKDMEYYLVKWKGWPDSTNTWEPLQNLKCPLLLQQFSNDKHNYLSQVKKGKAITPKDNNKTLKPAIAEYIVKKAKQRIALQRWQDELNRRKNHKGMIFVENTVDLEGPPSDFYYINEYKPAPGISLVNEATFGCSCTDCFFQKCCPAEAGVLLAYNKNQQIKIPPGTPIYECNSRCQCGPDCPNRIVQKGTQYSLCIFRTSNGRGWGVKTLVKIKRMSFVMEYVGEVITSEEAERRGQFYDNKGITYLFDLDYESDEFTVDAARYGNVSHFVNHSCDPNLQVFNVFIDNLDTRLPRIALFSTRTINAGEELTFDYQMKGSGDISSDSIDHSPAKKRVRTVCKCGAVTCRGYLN
Sequence of Casein kinase I isoform gamma-3 (Homo sapiens) (Q9Y6M4 whole entry, looked up, canonical isoform): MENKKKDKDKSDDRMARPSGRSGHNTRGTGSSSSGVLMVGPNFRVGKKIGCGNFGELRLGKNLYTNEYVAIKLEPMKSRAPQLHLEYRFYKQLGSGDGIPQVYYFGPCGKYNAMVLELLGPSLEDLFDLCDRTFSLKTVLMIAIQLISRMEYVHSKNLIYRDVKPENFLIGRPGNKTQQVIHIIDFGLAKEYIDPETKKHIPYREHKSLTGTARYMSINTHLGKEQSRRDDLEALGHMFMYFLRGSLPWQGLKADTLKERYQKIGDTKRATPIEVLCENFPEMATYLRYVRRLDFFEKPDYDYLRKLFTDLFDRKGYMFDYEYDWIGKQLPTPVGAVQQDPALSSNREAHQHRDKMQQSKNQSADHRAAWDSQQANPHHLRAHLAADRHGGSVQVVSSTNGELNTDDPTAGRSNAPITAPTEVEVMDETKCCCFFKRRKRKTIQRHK
T1 sequence (Q15746 whole entry): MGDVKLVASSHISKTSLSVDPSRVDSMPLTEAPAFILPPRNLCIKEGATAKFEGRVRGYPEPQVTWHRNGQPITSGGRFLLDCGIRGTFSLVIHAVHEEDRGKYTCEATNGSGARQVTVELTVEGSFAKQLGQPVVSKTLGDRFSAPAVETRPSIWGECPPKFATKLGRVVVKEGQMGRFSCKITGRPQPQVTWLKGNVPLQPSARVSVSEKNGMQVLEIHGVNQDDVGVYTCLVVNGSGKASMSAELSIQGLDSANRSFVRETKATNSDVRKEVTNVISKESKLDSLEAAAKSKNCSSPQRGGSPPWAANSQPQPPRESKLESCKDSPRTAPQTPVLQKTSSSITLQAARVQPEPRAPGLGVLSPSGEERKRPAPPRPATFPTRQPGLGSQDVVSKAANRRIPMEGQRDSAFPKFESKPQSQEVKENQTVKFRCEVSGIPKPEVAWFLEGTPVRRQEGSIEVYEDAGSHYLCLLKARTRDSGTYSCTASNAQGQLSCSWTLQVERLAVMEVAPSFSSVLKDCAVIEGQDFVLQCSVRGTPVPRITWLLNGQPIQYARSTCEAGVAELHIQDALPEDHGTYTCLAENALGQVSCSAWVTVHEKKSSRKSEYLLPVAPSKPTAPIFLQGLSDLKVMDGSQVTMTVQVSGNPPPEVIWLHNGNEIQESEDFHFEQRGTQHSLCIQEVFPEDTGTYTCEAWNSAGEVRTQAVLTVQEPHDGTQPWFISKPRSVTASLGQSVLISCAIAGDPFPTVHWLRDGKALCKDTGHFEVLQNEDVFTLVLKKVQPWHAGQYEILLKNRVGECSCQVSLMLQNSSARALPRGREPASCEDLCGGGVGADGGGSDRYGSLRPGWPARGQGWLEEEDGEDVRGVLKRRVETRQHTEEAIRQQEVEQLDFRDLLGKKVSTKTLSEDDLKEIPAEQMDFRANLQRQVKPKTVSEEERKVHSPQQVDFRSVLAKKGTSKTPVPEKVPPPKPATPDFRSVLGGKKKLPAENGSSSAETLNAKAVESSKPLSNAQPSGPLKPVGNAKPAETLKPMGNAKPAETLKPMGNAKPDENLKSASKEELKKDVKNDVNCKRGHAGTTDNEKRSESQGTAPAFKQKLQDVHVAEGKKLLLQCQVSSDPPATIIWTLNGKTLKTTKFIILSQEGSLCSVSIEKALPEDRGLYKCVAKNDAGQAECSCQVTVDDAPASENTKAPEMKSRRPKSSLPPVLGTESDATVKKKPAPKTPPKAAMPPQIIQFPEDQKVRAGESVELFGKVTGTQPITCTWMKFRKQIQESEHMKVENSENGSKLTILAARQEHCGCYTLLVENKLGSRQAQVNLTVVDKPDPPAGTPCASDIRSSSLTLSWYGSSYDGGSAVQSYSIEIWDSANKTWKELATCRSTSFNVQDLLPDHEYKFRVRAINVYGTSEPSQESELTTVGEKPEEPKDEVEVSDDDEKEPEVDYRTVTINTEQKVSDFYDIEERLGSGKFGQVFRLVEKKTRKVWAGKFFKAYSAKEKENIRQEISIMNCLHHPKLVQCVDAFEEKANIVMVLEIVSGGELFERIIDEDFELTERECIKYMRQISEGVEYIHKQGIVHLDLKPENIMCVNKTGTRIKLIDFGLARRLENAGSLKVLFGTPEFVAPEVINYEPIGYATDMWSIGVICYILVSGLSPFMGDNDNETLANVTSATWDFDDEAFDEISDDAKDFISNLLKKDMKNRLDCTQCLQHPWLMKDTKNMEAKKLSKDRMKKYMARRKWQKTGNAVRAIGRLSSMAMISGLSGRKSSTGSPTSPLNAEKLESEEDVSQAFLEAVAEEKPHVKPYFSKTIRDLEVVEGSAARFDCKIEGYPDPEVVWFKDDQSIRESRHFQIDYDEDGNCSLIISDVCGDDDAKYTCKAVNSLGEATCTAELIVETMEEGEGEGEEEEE
Sequence of RAC-alpha serine/threonine-protein kinase (P31749 whole entry): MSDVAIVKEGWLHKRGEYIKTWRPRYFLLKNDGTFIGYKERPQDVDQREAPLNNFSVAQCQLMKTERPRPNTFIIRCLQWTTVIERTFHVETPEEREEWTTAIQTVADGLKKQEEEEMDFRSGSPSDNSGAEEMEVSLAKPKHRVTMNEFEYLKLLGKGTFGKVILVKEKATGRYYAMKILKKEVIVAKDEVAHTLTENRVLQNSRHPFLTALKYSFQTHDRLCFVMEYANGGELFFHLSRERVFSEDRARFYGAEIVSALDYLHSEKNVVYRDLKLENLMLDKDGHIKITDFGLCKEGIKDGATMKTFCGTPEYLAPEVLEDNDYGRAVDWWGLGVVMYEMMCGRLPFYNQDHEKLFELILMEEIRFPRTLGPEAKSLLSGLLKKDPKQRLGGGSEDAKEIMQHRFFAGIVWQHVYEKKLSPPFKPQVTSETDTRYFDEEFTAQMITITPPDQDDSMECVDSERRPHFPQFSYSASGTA
Sequence of Serine/threonine-protein kinase Nek6 (Homo sapiens) (Q9HC98 whole entry): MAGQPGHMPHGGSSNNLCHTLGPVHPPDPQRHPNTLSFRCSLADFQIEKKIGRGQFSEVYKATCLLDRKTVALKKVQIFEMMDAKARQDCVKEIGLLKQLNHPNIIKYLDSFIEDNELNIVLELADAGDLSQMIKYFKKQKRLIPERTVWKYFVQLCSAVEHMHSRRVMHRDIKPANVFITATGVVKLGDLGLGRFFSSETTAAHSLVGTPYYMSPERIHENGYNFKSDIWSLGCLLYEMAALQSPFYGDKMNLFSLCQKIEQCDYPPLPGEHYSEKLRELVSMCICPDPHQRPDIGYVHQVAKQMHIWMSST

SMILES: Cc1cc(C)cc([C@@H]2c3cc(C)ccc3NC(=O)CN2C(=O)c2ccc(Br)s2)c1
% of activity ([1]; at 1 µM): 99% | % of activity ([1]; at 10 µM): 99%

% of control [2]: 100%
SMILES: CCN(CC)CCCCNc1ncc2cc(-c3cc(OC)cc(OC)c3)c(NC(=O)NC(C)(C)C)nc2n1

% of activity ([3]; at 1 µM): 99.7% | % of activity ([3]; at 10 µM): 98%
SMILES: Cc1cc(C)cc([C@H]2c3cc(C)ccc3NC(=O)CN2C(=O)c2ccc(Br)s2)c1

% of inhibition [4]: -3%
SMILES: CN1Cc2nccc(-c3cn(C)nc3-c3ccc(F)cc3)c2C1=O

SMILES: CNC(=O)Nc1ccc(-c2nc(N3CC4CCC(C3)O4)c3cnn(C4CCC5(CC4)OCCO5)c3n2)cc1
% of control [5]: 81% | % of control [6]: 100%

SMILES: N#Cc1cccc(-c2c[nH]c3ncnc(N4CCOCC4)c23)c1
% of inhibition [7]: 13%

SMILES: COCC(=O)NC/C=C/c1ccc2ncnc(Nc3ccc(Oc4ccc(C)nc4)c(C)c3)c2c1 [CP-724714]
% of control [8]: 73%

% of inhibition [9]: -8%
SMILES: Cc1ccc(-c2ccc3c(ccc4sc5c(c43)NC[C@@H](C)NC5=O)n2)cn1

% activity [10]: > 90%
SMILES: CNCCN1CCC(c2cc(CN(C)C(=O)c3cccc(Oc4ccccc4)c3)ccn2)CC1

SMILES: C=CC(=O)Nc1ccc(C(=O)Nc2[nH]nc3c2CN(C(=O)N[C@H](CN(C)C)c2ccccc2)C3(C)C)cc1
% of engagement [11]: 6%

% activity ([12]; at 1 µM): > 90% | % activity ([12]; at 10 µM): > 80%
SMILES: Cc1cc(CN)cc(C)c1-c1ncn(C)c1-c1cncn1C

SMILES: COc1cc(N(C)c2ccnc3ccc(C(F)(F)F)cc23)cc(OC)c1OC
% binding [13]: 89%

% of control ([14]; at 1 µM): 38% | % of control ([14]; at 5 µM): 12%
SMILES: C=CC(=O)Nc1cccc(C(=O)Nc2ccc(Nc3cc(-c4[nH]c(SC)nc4C)ccn3)cc2)c1

SMILES: COc1cc(Nc2nc(C)cc(-c3cnn4nc(OC)ccc34)n2)cc(C(F)(F)F)c1
% of control [15]: 100%

SMILES: O=C(NOC[C@H](O)CO)c1ccc(F)c(F)c1Nc1ccc(I)cc1F
% of control [16]: 96%

SMILES: CCC(=O)N1CCN(c2ccc(-n3c(=O)ccc4cnc5ccc(-c6cnc7ccccc7c6)cc5c43)cc2C(F)(F)F)CC1
% of control [17]: 99%

% of inhibition [18]: 15%
SMILES: Cn1cc(-n2cnc3c(NCc4nc5cc(Cl)c(Cl)cc5[nH]4)nc(N4CCOCC4)nc32)cn1

SMILES: Cc1cc(F)c(C(=O)Nc2cccc(-c3nncn3C(C)C)n2)cc1-n1cnc(C2CC2)c1
% of control [19]: 92%
